Cytotoxicity activity data for 36 compounds are collected here from patent US20230340012A1, “NATURAL AND SYNTHETIC COMPOUNDS FOR TREATING CANCER AND OTHER DISEASES” (PACIFIC ARROW LIMITED, priority 2009, published 2023).

Each structure is given as a SMILES string.

This data set deals with cancer cells. Put plainly: MTT cytotoxic assay of esterification products (Cytotoxicity activity). Type of data set: cell-based, human. The procedure, abridged:
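Cytotoxicity was read by MTT (Carmichael method, modified), with cells seeded 24 h ahead of treatment. Sixteen human cancer lines spanning bone, lung, bladder, ovary, colon, pancreas, prostate, skin, mouth, kidney, breast, liver, brain, leukemia and cervix were used. Test samples were acyl chloride esterification products of triterpenes, as mixtures or HPLC-purified compounds.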

The mark [1] stands for this setting: E4A esterified with Crotonoyl chloride (Cro = Crotonoyl), compounds isolated with HPLC.
Where [2] appears, read: E4A esterified with Cinnamoyl chloride (Cin = Cinnamoyl), compounds isolated with HPLC.

In the case of `CC=CC(=O)OCC1(C)C(O)CCC2(C)C1CCC1(C)C2CC=C2C3CC(C)(C)C(OC(=O)C=CC)C(O)C3(CO)C(O)CC21C` (centres unmarked) [Compound I29], the Cytotoxicity activity result under setting [1] is recorded as “moderate”. Still for that read-out and setting: next, `CC=CC(=O)OCC1(C)C(O)CCC2(C)C1CCC1(C)C2CC=C2C3CC(C)(C)C(O)C(OC(=O)C=CC)C3(CO)C(O)CC21C` (centres unmarked) [Compound I30]: “moderate”; `CC=CC(=O)OCC1(C)C(OC(=O)C=CC)CCC2(C)C1CCC1(C)C2CC=C2C3CC(C)(C)C(O)C(O)C3(CO)C(O)CC21C` (centres unmarked) [Compound I31]: “moderate”; `CC=CC(=O)OCC1(C)C(O)CCC2(C)C1CCC1(C)C2CC=C2C3CC(C)(C)C(O)C(O)C3(CO)C(OC(=O)C=CC)CC21C` (centres unmarked) [Compound I32]: “moderate”. As for `CC1(C)CC2C3=CCC4C5(C)CCC(O)C(C)(COC(=O)C=Cc6ccccc6)C5CCC4(C)C3(C)CC(O)C2(CO)C(O)C1O` (centres unmarked) [Compound J1], under setting [2], the Cytotoxicity activity entry is given as “moderate”. Still for that read-out and setting: next, `CC1(C)CC2C3=CCC4C5(C)CCC(O)C(C)(CO)C5CCC4(C)C3(C)CC(O)C2(COC(=O)C=Cc2ccccc2)C(O)C1O` (centres unmarked) [Compound J2]: “moderate”. On to `CC1(C)CC2C3=CCC4C5(C)CCC(O)C(C)(COC(=O)C=Cc6ccccc6)C5CCC4(C)C3(C)CC(O)C2(COC(=O)C=Cc2ccccc2)C(O)C1O` (centres unmarked) [Compound J3], for which, under setting [2], the Cytotoxicity activity result is listed as “strong”. Still for that read-out and setting: in the case of `CC1(C)CC2C3=CCC4C5(C)CCC(O)C(C)(COC(=O)C=Cc6ccccc6)C5CCC4(C)C3(C)CC(O)C2(COC(=O)C=Cc2ccccc2)C(O)C1OC(=O)C=Cc1ccccc1` (centres unmarked) [Compound J4] it was “moderate”; in that of `CC1(C)CC2C3=CCC4C5(C)CCC(O)C(C)(COC(=O)C=Cc6ccccc6)C5CCC4(C)C3(C)CC(O)C2(COC(=O)C=Cc2ccccc2)C(OC(=O)C=Cc2ccccc2)C1O` (centres unmarked) [Compound J5], “moderate”. With `CC1(C)CC2C3=CCC4C5(C)CCC(OC(=O)C=Cc6ccccc6)C(C)(COC(=O)C=Cc6ccccc6)C5CCC4(C)C3(C)CC(O)C2(COC(=O)C=Cc2ccccc2)C(O)C1O` (centres unmarked) [Compound J6], the Cytotoxicity activity result under setting [2] was “moderate”. Consider `CC1(C)CC2C3=CCC4C5(C)CCC(O)C(C)(COC(=O)C=Cc6ccccc6)C5CCC4(C)C3(C)CC(OC(=O)C=Cc3ccccc3)C2(COC(=O)C=Cc2ccccc2)C(O)C1O` (centres unmarked) [Compound J7], for which the Cytotoxicity activity entry under setting [2] was “moderate”. `CC1(C)CC2C3=CCC4C5(C)CCC(O)C(C)(COC(=O)C=Cc6ccccc6)C5CCC4(C)C3(C)CC(O)C2(COC(=O)C=Cc2ccccc2)C(OC(=O)C=Cc2ccccc2)C1OC(=O)C=Cc1ccccc1` (centres unmarked) [Compound J8]: under setting [2], the Cytotoxicity activity entry is given as “weak”. Same read-out and setting: next, `CC1(C)CC2C3=CCC4C5(C)CCC(OC(=O)C=Cc6ccccc6)C(C)(COC(=O)C=Cc6ccccc6)C5CCC4(C)C3(C)CC(O)C2(COC(=O)C=Cc2ccccc2)C(OC(=O)C=Cc2ccccc2)C1O` (centres unmarked) [Compound J9]: “weak”. Turning to `CC1(C)CC2C3=CCC4C5(C)CCC(OC(=O)C=Cc6ccccc6)C(C)(COC(=O)C=Cc6ccccc6)C5CCC4(C)C3(C)CC(OC(=O)C=Cc3ccccc3)C2(COC(=O)C=Cc2ccccc2)C(O)C1O` (centres unmarked) [Compound J10], the Cytotoxicity activity entry under setting [2] is recorded as “weak”.

For the compound `CC1(C)CC2C3=CCC4C5(C)CCC(OC(=O)C=Cc6ccccc6)C(C)(COC(=O)C=Cc6ccccc6)C5CCC4(C)C3(C)CC(O)C2(COC(=O)C=Cc2ccccc2)C(O)C1OC(=O)C=Cc1ccccc1` (centres unmarked) [Compound J11], the Cytotoxicity activity entry under setting [2] is given as “weak”. For `CC1(C)CC2C3=CCC4C5(C)CCC(O)C(C)(COC(=O)C=Cc6ccccc6)C5CCC4(C)C3(C)CC(OC(=O)C=Cc3ccccc3)C2(COC(=O)C=Cc2ccccc2)C(OC(=O)C=Cc2ccccc2)C1O` (centres unmarked) [Compound J12], the Cytotoxicity activity entry under setting [2] is “weak”. Same read-out and setting: in the case of `CC1(C)CC2C3=CCC4C5(C)CCC(O)C(C)(COC(=O)C=Cc6ccccc6)C5CCC4(C)C3(C)CC(OC(=O)C=Cc3ccccc3)C2(COC(=O)C=Cc2ccccc2)C(O)C1OC(=O)C=Cc1ccccc1` (centres unmarked) [Compound J13] it was “weak”; in that of `CC1(C)CC2C3=CCC4C5(C)CCC(OC(=O)C=Cc6ccccc6)C(C)(COC(=O)C=Cc6ccccc6)C5CCC4(C)C3(C)CC(O)C2(COC(=O)C=Cc2ccccc2)C(OC(=O)C=Cc2ccccc2)C1OC(=O)C=Cc1ccccc1` (centres unmarked) [Compound J15], “weak”; in that of `CC1(C)CC2C3=CCC4C5(C)CCC(O)C(C)(COC(=O)C=Cc6ccccc6)C5CCC4(C)C3(C)CC(OC(=O)C=Cc3ccccc3)C2(COC(=O)C=Cc2ccccc2)C(OC(=O)C=Cc2ccccc2)C1OC(=O)C=Cc1ccccc1` (centres unmarked) [Compound J16], “weak”.

Take `CC1(C)CC2C3=CCC4C5(C)CCC(OC(=O)C=Cc6ccccc6)C(C)(COC(=O)C=Cc6ccccc6)C5CCC4(C)C3(C)CC(OC(=O)C=Cc3ccccc3)C2(COC(=O)C=Cc2ccccc2)C(O)C1OC(=O)C=Cc1ccccc1` (centres unmarked) [Compound J17]: the Cytotoxicity activity entry under setting [2] was “weak”.

On to `CC1(C)CC2C3=CCC4C5(C)CCC(OC(=O)C=Cc6ccccc6)C(C)(COC(=O)C=Cc6ccccc6)C5CCC4(C)C3(C)CC(OC(=O)C=Cc3ccccc3)C2(COC(=O)C=Cc2ccccc2)C(OC(=O)C=Cc2ccccc2)C1O` (centres unmarked) [Compound J18], for which, under setting [2], the Cytotoxicity activity result was “weak”. The same measure, in the same setting: in the case of `CC1(C)CC2C3=CCC4C5(C)CCC(OC(=O)C=Cc6ccccc6)C(C)(COC(=O)C=Cc6ccccc6)C5CCC4(C)C3(C)CC(OC(=O)C=Cc3ccccc3)C2(COC(=O)C=Cc2ccccc2)C(OC(=O)C=Cc2ccccc2)C1OC(=O)C=Cc1ccccc1` (centres unmarked) [Compound J19] it was “none”. `CC1(C)CC2C3=CCC4C5(C)CCC(O)C(C)(CO)C5CCC4(C)C3(C)CC(O)C2(COC(=O)C=Cc2ccccc2)C(OC(=O)C=Cc2ccccc2)C1OC(=O)C=Cc1ccccc1` (centres unmarked) [Compound J20]: the Cytotoxicity activity entry under setting [2] was “moderate”. On the same count and under the same terms, in the case of `CC1(C)CC2C3=CCC4C5(C)CCC(O)C(C)(COC(=O)C=Cc6ccccc6)C5CCC4(C)C3(C)CC(O)C2(CO)C(OC(=O)C=Cc2ccccc2)C1OC(=O)C=Cc1ccccc1` (centres unmarked) [Compound J21] it was “moderate”; in that of `CC1(C)CC2C3=CCC4C5(C)CCC(O)C(C)(CO)C5CCC4(C)C3(C)CC(OC(=O)C=Cc3ccccc3)C2(CO)C(OC(=O)C=Cc2ccccc2)C1OC(=O)C=Cc1ccccc1` (centres unmarked) [Compound J22], “moderate”; in that of `CC1(C)CC2C3=CCC4C5(C)CCC(OC(=O)C=Cc6ccccc6)C(C)(CO)C5CCC4(C)C3(C)CC(O)C2(CO)C(OC(=O)C=Cc2ccccc2)C1OC(=O)C=Cc1ccccc1` (centres unmarked) [Compound J23], “moderate”. `CC1(C)CC2C3=CCC4C5(C)CCC(O)C(C)(CO)C5CCC4(C)C3(C)CC(O)C2(CO)C(OC(=O)C=Cc2ccccc2)C1OC(=O)C=Cc1ccccc1` (centres unmarked) [Compound J24]: under setting [2], the Cytotoxicity activity entry is “moderate”.

With `CC1(C)CC2C3=CCC4C5(C)CCC(O)C(C)(CO)C5CCC4(C)C3(C)CC(O)C2(COC(=O)C=Cc2ccccc2)C(O)C1OC(=O)C=Cc1ccccc1` (centres unmarked) [Compound J25], under setting [2], the Cytotoxicity activity result is listed as “moderate”. On the same count and under the same terms, in the case of `CC1(C)CC2C3=CCC4C5(C)CCC(O)C(C)(CO)C5CCC4(C)C3(C)CC(O)C2(COC(=O)C=Cc2ccccc2)C(OC(=O)C=Cc2ccccc2)C1O` (centres unmarked) [Compound J26] it was “moderate”; in that of `CC1(C)CC2C3=CCC4C5(C)CCC(OC(=O)C=Cc6ccccc6)C(C)(CO)C5CCC4(C)C3(C)CC(O)C2(COC(=O)C=Cc2ccccc2)C(O)C1O` (centres unmarked) [Compound J27], “moderate”. Same read-out and setting: in the case of `CC1(C)CC2C3=CCC4C5(C)CCC(O)C(C)(CO)C5CCC4(C)C3(C)CC(OC(=O)C=Cc3ccccc3)C2(COC(=O)C=Cc2ccccc2)C(O)C1O` (centres unmarked) [Compound J28] it was “moderate”. Still for that read-out and setting: next, `CC1(C)CC2C3=CCC4C5(C)CCC(O)C(C)(COC(=O)C=Cc6ccccc6)C5CCC4(C)C3(C)CC(O)C2(CO)C(O)C1OC(=O)C=Cc1ccccc1` (centres unmarked) [Compound J29]: “moderate”. On to `CC1(C)CC2C3=CCC4C5(C)CCC(O)C(C)(COC(=O)C=Cc6ccccc6)C5CCC4(C)C3(C)CC(O)C2(CO)C(OC(=O)C=Cc2ccccc2)C1O` (centres unmarked) [Compound J30], for which, under setting [2], the Cytotoxicity activity result is on record as “moderate”. As to `CC1(C)CC2C3=CCC4C5(C)CCC(OC(=O)C=Cc6ccccc6)C(C)(COC(=O)C=Cc6ccccc6)C5CCC4(C)C3(C)CC(O)C2(CO)C(O)C1O` (centres unmarked) [Compound J31], under setting [2], the Cytotoxicity activity entry is “moderate”. Regarding `CC1(C)CC2C3=CCC4C5(C)CCC(O)C(C)(COC(=O)C=Cc6ccccc6)C5CCC4(C)C3(C)CC(OC(=O)C=Cc3ccccc3)C2(CO)C(O)C1O` (centres unmarked) [Compound J32], under setting [2], the Cytotoxicity activity entry is reported as “moderate”. In the case of `CC1(C)CC2C3=CCC4C5(C)CCC(O)C(C)(COC(=O)c6ccccc6)C5CCC4(C)C3(C)CC(OC(=O)c3ccccc3)C2(COC(=O)c2ccccc2)C(OC(=O)c2ccccc2)C1O` (centres unmarked) [Compound K12], the Cytotoxicity activity entry runs as follows: (E4A esterified with 2-propenoyl chloride (Ppe = Propenoyl), compounds isolated with HPLC) “weak”; (E4A esterified with Propionyl chloride (Ppi = Propionyl), compounds isolated with HPLC) “weak”; (E4A esterified with benzoyl chloride (Ben = benzoyl), compounds isolated with HPLC) “weak”; (esterification products of core compound E4A with (2E)-2-pentenoyl chloride (2pe = 2-pentenoyl)) “weak”; (esterification products of core compound E4A with Butyryl chloride (But = Butyryl)) “weak”; (esterification products of core compound E4A with Decanoyl chloride (Dec = Decanoyl)) “weak”. In addition, the Cytotoxicity activity result by setting is: (esterification products of core compound E4A with Isobutyryl chloride (Iso = Isobutyryl)) “weak”; (esterification products of core compound E4A with Myristoyl chloride (Myr = Myristoyl)) “weak”; (esterification products of core compound E4A with Octanoyl chloride (Oct = Octanoyl)) “weak”.
